Assays:
[1] = tested on: TNF-alpha inducible reporter gene; assay: Inhibition of TNF-alpha-induced reporter gene expression (luciferase) in HeLa-derived cell line; assay type: cell-based, human; conditions: Homo sapiens, 6 h, remaining luciferase activity in presence of 3 μM of compound as ratio of DMSO-treated cells, TNF-alpha 50 ng/ml, read-out: Efficacy (ratio to DMSO) TNF-alpha induced response
Excerpt: TNF-alpha responsive cell lines like the human HeLa cell line can be used to study cellular responses to TNF-alpha, e.g. transcriptional regulation of a transfected TNF-alpha responsive reporter gene, and effects of kinase inhibitors on this response.
In order to analyse compound effects on TNF-alpha mediated transcriptional response, a HeLa-derived cell line stably transfected with a TNF-alpha inducible reporter gene was used (Panomics Catalog No. RC0013). The cell line was obtained by co-transfection of a luciferase reporter gene (Panomics P/N LR0051) and pHyg into human cervical epithelial HeLa cells, followed by hygromycin selection. TNFα-induced luciferase activity was used to select clones from the hygromycin-resistant cells. The cell line was maintained and stimulated according to the manufacturer's instructions. Briefly, cells were seeded at 5×10^5/well in 1 ml of growth medium in a 12-well plate and incubated in a humidified incubator at 37° C. and 5% CO2 for 24 hours. Medium was replaced with 1 ml of serum free medium and compounds were added up to concentrations of […]. After 1 hour of incubation, TNF-alpha was added to achieve a final concentration of 50 ng/ml. The culture dish was further incubated in a humidified incubator at 37° C. and 5% CO2 for 6 hours, medium was removed and 100 μL of lysis buffer were added to each well and the assay for luciferase activity was performed according to assay manufacturer's (Promega P/N E1500) recommendations. For more information about this cell line, go to worldwide website www(dot)panomics.com.
Compound effects on TNF-alpha-induced reporter gene expression is shown in column 6 in Table 1 given below. Indicated is the remaining luciferase activity after incubation in presence of 3 μM of compound as a ratio of the activity of DMSO-treated cells without compound. Specifically, it was intended to distinguish cell permeable compounds from other compounds having significant inhibitory potency with regard to other CDKs, but fail to penetrate cells or are unstable under the conditions of the experiment.

[2] = target: CDK9 (Homo sapiens (Human), UniProt P50750); assay: In vitro kinase inhibition, KinaseProfiler service of Millipore, residual activity; assay type: biochemical
CDK9, sequence (P50750 whole entry): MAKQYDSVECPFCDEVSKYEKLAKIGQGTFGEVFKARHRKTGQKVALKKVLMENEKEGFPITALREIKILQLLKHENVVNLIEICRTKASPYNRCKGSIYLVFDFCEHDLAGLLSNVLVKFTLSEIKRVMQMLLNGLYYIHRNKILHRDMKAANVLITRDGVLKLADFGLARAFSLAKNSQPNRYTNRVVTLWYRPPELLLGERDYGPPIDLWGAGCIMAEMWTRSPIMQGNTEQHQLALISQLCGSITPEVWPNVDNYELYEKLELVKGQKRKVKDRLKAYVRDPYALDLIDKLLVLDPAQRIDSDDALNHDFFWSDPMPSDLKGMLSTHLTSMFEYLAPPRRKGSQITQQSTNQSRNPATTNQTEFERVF
CDK9, sequence (O60563 whole entry partner): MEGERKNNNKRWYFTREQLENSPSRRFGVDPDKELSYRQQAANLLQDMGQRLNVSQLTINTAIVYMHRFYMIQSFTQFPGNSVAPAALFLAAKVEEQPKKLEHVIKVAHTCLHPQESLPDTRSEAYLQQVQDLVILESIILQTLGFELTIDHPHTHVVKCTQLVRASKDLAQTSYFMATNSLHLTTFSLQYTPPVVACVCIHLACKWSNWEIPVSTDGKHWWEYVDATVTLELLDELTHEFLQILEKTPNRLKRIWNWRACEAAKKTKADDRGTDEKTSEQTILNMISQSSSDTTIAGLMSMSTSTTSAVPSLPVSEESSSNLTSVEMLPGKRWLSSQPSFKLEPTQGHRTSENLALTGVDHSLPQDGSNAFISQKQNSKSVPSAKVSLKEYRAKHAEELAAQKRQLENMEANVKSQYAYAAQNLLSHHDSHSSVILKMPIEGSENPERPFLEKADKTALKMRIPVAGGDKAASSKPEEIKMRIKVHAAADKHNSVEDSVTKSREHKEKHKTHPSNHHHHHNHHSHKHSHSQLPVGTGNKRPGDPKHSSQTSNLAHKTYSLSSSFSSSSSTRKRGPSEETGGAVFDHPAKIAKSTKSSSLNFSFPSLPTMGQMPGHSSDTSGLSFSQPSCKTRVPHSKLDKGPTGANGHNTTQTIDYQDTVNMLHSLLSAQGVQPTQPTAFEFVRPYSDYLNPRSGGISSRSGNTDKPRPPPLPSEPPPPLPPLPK
Excerpt: (§1) In vitro kinase assay analysis may be performed using standard techniques described in the art. These techniques are also used by commercial services providers in order to offer in vitro kinase activity assay services, e.g. the assays offered by Millipore Inc. (worldwide website www(dot)millipore.com), ProQinase GmbH (worldwide website www(dot)proqinase.de) and others.
In vitro kinase inhibition results shown in columns 7 to 9 in Table 1 were obtained by employing the KinaseProfiler™ service of Millipore and used to select compounds displaying specificity for CDK9. Specifically, it was intended to distinguish the CDK9-specific compounds from other compounds having significant inhibitory potency also with regard to other CDKs.

[3] = target: CDK1/CycB (Homo sapiens (Human), UniProt P06493); assay: Kinase activity assay IC50 profile; assay type: biochemical; conditions: read-out: IC50 CDK1/B
Description: as §1
(§2) On the day of the kinase inhibition assay, 451 μl H2O were added to each well of a set of compound dilution plates. To minimize precipitation, the H2O was added to the plates only a few minutes before the transfer of the compound solutions into the assay plates. The plates were shaken thoroughly, resulting in “compound dilution plates/10%/DMSO” with a concentration of 1×10^−03 M/10% DMSO to 3×10^−08 M/10% DMSO in semilog steps. These plates were used for the transfer of 5 μl compound solution into the “assay plates”. The compound dilution plates were discarded at the end of the working day. For the assays (see below), 5 μl solution from each well of the compound dilution plates were transferred into the assay plates. The final volume of the assay was 50 μl. […]
(§3) The median value of the counts in column 1 (n=8) of each assay plate was defined as “low control”. This value reflects unspecific binding of radioactivity to the plate in the absence of a protein kinase but in the presence of the substrate. […]

[4] = target: CDK3/CycE (Homo sapiens (Human), UniProt Q00526); assay: Kinase activity assay IC50 profile; assay type: biochemical; conditions: read-out: IC50 CDK3/E
CDK3/CycE, sequence (Q00526 whole entry): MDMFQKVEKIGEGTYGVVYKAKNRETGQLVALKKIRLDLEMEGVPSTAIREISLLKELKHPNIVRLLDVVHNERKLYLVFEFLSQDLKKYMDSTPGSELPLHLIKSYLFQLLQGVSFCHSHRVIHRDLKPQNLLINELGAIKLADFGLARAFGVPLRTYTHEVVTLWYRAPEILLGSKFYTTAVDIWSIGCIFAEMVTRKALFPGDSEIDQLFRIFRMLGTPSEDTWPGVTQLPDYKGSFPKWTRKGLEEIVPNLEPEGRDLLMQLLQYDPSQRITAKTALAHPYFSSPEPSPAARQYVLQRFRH
CDK3/CycE, sequence (P24864 whole entry partner): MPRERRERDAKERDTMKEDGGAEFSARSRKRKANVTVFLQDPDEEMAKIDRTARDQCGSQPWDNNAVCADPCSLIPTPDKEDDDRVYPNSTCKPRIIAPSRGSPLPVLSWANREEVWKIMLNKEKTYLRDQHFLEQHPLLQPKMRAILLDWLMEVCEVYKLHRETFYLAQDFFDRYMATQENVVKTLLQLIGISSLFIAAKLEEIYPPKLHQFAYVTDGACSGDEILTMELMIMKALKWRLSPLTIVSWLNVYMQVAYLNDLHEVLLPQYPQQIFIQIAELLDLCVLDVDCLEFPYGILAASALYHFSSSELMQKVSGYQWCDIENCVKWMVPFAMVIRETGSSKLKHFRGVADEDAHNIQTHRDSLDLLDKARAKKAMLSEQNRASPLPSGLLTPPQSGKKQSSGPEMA
Description: as §1, §2, §3

[5] = target: CDK2/CycA (Homo sapiens (Human), UniProt P24941); assay: Kinase activity assay IC50 profile; assay type: biochemical
Description: as §1, §2, §3

[6] = target: CDK5/p35NCK (Homo sapiens (Human), UniProt Q00535); assay: Kinase activity assay IC50 profile; assay type: biochemical; conditions: read-out: IC50 CDK5/p35
CDK5/p35NCK, sequence (Q00535 whole entry): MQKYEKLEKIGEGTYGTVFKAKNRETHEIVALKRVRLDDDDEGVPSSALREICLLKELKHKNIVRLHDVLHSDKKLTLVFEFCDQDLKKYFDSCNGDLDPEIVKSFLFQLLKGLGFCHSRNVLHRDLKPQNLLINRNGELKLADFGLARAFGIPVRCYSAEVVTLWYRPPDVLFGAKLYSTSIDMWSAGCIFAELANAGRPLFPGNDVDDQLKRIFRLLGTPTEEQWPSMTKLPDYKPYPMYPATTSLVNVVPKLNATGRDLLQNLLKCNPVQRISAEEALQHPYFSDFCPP
CDK5/p35NCK, sequence (Q15078 whole entry partner): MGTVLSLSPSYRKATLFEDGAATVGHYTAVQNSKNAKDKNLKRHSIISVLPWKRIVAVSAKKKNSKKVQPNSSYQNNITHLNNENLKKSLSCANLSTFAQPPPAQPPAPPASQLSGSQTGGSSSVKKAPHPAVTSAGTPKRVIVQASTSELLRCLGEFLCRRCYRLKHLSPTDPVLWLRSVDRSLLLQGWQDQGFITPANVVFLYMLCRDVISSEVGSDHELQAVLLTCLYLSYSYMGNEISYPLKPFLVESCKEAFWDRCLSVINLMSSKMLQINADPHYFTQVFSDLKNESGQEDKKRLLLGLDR
Description: as §1, §2, §3

[7] = target: CDK6/CycD3 (Homo sapiens (Human), UniProt Q00534); assay: Kinase activity assay IC50 profile; assay type: biochemical; conditions: read-out: IC50 CDK6/D3
CDK6/CycD3, sequence (Q00534 whole entry): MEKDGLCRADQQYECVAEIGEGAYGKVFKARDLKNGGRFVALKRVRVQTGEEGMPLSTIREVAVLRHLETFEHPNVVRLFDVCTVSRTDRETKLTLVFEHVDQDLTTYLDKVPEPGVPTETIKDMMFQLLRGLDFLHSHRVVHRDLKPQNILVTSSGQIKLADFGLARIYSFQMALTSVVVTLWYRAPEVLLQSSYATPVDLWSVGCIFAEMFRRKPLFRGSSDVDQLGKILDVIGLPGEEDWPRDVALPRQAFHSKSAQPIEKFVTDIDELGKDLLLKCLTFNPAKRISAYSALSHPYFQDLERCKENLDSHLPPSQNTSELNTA
CDK6/CycD3, sequence (P30281 whole entry partner): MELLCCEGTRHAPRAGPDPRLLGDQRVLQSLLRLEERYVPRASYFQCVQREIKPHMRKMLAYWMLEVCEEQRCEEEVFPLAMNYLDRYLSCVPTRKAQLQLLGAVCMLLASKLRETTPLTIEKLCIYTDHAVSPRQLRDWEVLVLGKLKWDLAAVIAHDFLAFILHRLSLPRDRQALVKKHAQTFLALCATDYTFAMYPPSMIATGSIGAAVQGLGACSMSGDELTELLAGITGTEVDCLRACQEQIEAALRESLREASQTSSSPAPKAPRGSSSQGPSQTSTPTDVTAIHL

[8] = target: CDK7/CycH/MAT1 (Homo sapiens (Human), UniProt P50613); assay: Kinase activity assay IC50 profile; assay type: biochemical; conditions: read-out: IC50 CDK7/H/MAT1
CDK7/CycH/MAT1, sequence (P50613 whole entry): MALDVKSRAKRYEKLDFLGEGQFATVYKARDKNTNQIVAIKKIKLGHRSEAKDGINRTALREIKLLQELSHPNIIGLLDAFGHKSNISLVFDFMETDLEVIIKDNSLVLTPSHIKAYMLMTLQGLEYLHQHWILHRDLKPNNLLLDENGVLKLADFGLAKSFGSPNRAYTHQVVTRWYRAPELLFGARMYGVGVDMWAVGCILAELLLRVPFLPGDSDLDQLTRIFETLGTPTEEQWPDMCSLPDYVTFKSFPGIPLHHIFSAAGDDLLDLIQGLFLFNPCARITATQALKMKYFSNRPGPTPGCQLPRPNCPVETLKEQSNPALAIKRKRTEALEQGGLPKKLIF
CDK7/CycH/MAT1, sequence (P51946 whole entry partner): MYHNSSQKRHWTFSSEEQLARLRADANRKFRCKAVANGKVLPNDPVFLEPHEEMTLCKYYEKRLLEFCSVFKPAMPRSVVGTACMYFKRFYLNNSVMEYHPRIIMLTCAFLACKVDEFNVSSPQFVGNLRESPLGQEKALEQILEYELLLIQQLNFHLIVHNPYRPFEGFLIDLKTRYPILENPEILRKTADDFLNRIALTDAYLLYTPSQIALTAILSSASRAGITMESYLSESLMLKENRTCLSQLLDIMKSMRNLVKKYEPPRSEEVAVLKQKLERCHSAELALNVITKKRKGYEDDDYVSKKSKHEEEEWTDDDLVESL
CDK7/CycH/MAT1, sequence (P51948 whole entry partner): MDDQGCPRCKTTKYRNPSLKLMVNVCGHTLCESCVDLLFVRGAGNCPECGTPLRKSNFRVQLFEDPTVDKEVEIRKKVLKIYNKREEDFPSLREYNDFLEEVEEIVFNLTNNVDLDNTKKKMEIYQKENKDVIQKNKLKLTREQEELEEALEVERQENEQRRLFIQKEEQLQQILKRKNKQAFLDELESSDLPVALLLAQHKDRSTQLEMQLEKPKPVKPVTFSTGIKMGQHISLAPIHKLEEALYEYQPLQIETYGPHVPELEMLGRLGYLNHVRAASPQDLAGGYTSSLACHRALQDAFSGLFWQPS
Description: as §1
(§4) On the day of the kinase inhibition assay, 451 μl H2O were added to each well of a set of compound dilution plates. To minimize precipitation, the H2O was added to the plates only a few minutes before the transfer of the compound solutions into the assay plates. The plates were shaken thoroughly, resulting in “compound dilution plates/10%/DMSO” with a concentration of 1×10^−03 M/10% DMSO to 3×10^−08 M/10% DMSO in semilog steps. These plates were used for the transfer of 5 μl compound solution into the “assay plates”. The compound dilution plates were discarded at the end of the working day. For the assays (see below), 5 μl solution from each well of the compound dilution plates were transferred into the assay plates. The final volume of the assay was 50 μl. All compounds were tested at 10 final assay concentrations in the range from 1×10^−04 M to 3×10^−09 M. The final DMSO concentration in the reaction mixtures was 1% in all cases.
(§5) All kinase assays were performed in 96-well FlashPlates™ from Perkin Elmer/NEN (Boston, Mass., USA) in a 50 μl reaction volume. The reaction mixture was pipetted in four steps in the following order: • 20 μl of assay buffer (standard buffer) • 5 μl of ATP solution (in H2O) • 5 μl of test compound (in 10% DMSO) • 10 μl of substrate/10 μl of enzyme solution (premixed)
(§6) The assay for all enzymes contained 60 mM HEPES-NaOH (pH 7.5), 3 mM MgCl2, 3 mM MnCl2, 3 μM Na-Orthovanadate, 1.2 mM DTT, 50 μg/ml PEG2000, 1 μM [^33P]-ATP (approx. 5 ×1005 cpm per well).
(§7) Reaction mixtures were incubated at 30° C. for 80 min. The reaction was stopped with 50 μl of 2% (v/v) H3PO4, plates were aspirated and washed two times with 200 μl H2O or 200 μl 0.9% (w/v) NaCl. Incorporation of ^33P was determined with a microplate scintillation counter (Microbeta, Wallac).
(§8) The median value of the counts in column 1 (n=8) of each assay plate was defined as “low control”. This value reflects unspecific binding of radioactivity to the plate in the absence of a protein kinase but in the presence of the substrate. […] The residual activity (in %) for each well of a particular plate was calculated by using the following formula: Res. Activity(%)=100×[(cpm of compound−low control)/(high control−low control)]
(§9) The residual activities for each concentration and the compound IC50 values were calculated using Quattro Workflow V2.0.1.3 (Quattro Research GmbH, Munich, Germany; worldwide website www(dot)quattro-research.com). […]

[9] = target: GSK3-alpha (Homo sapiens (Human), UniProt P49840); assay: Kinase activity assay IC50 profile; assay type: biochemical; conditions: read-out: IC50 GSK3a
GSK3-alpha, sequence (P49840 whole entry): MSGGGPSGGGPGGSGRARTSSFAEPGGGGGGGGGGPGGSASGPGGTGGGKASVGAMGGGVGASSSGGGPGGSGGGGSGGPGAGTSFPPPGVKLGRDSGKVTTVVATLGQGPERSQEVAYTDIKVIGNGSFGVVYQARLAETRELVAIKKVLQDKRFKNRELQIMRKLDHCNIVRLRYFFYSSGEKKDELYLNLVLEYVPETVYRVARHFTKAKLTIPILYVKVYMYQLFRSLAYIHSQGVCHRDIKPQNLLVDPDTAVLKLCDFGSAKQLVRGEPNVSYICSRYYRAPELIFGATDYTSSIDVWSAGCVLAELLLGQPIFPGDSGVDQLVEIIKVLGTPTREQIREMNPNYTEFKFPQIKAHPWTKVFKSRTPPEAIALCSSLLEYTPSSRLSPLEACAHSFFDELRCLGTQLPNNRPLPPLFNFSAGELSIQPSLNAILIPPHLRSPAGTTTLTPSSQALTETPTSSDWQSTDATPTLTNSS
Description: as §1, §4, §5, §6, §7, §8, §9

[10] = target: GSK3-beta (Homo sapiens (Human), UniProt P49841); assay: Kinase activity assay IC50 profile; assay type: biochemical; conditions: read-out: IC50 GSK3b
GSK3-beta, sequence (P49841 whole entry): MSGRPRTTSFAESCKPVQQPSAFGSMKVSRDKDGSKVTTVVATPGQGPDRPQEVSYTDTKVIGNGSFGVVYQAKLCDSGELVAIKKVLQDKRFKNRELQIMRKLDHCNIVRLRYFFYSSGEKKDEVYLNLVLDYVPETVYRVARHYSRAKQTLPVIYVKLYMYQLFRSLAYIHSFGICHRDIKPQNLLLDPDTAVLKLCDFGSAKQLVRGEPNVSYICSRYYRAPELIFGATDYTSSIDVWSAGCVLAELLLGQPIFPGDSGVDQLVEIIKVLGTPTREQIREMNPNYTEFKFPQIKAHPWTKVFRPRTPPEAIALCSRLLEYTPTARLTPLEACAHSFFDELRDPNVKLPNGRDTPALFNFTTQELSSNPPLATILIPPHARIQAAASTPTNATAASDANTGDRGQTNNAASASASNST
Description: as §1, §4, §5, §6, §7, §8, §9

[11] = target: IRAK1 (Homo sapiens (Human), UniProt P51617); assay: Kinase activity assay IC50 profile; assay type: biochemical
Description: as §1, §4, §5, §6, §7, §8, §9

With `COc1cc(F)ccc1-c1ccnc(NC(=O)[C@H]2CCC[C@@H](NC(C)=O)C2)c1` (relative stereo) [Example 33, cis-3-Acetamido-N-(4-(4-fluoro-2-methoxyphenyl)pyridin-2-yl)cyclo-hexanecarboxamide] the activity at 3 µM [1] was 3%, the remaining activity at 0.01 µM ([2]; residual activity at 10 nM compound, read-out: CDK9 10 nM (RA in %)) was 29% and the remaining activity at 0.1 µM ([2]; residual activity at 100 nM compound, read-out: CDK9 100 nM (RA in %)) was 3%. The IC50 [3] was 94 nM, the IC50 [4] was 219 nM and the IC50 [5] was 168 nM. For the same compound, the IC50 [6] was 1080 nM, the IC50 [7] was > 5000 nM and the IC50 [8] was > 5000 nM. The IC50 [9] was 160 nM, the IC50 [10] was 903 nM and the IC50 [11] was > 5000 nM.

— patent publication US9067888B2, “Inhibitors of protein kinases” (Ingenium Pharmaceuticals GmbH, priority 2010, dated 2015)
